Source: patent publication US5480879A, “Quinolonecarboxylic acids” (Bayer Aktiengesellschaft, priority 1992, dated 1996)
Converted amounts (≈) assume the structure as drawn.

Assays:
Test in all cases: MIC in microtitre plates, brain-heart infusion broth
Assay type in all cases: cell-based
[1] = system: Enterococcus faecalis 27101; conditions: about 10^5 microorganisms/ml inoculum
Source text: (§1) The determination of the "minimum inhibitory concentrations" (MIC) was effected in mitrotitre plates using brain-heart infusion broth, with about 10^5 microorganisms/ml being employed as the inoculum.

[2] = system: Enterococcus faecalis 9790; conditions: about 10^5 microorganisms/ml inoculum
Source text: as §1

Escherichia coli Neumann = conditions: about 10^5 microorganisms/ml inoculum
Source text: as §1

Klebsiella sp. 63 = conditions: about 10^5 microorganisms/ml inoculum
Source text: as §1

[3] = system: Serratia marcescens 16040; conditions: about 10^5 microorganisms/ml inoculum
Source text: as §1

[4] = system: Staphylococcus aureus 133; conditions: about 10^5 microorganisms/ml inoculum
Source text: as §1

[5] = system: Staphylococcus aureus 1756; conditions: about 10^5 microorganisms/ml inoculum
Source text: as §1

[6] = system: Staphylococcus aureus ICB 25701; conditions: ICB25701, about 10^5 microorganisms/ml inoculum
Source text: as §1

[7] = system: Staphylococcus aureus ICB 25768; conditions: ICB25768, about 10^5 microorganisms/ml inoculum
Source text: as §1

Structure (SMILES)	MIC [1]	MIC [2]	MIC (Escherichia coli Neumann)	MIC (Klebsiella sp. 63)	MIC [3]	MIC [4]	MIC [5]	MIC [6]	MIC [7]
O=C(Cc1ccccc1)N[C@@H]1C(=O)N2C(C(=O)O)=C(CN3CCN(c4c(F)cc5c(=O)c(C(=O)O)cn(C6CC6)c5c4Cl)CC3)CS[C@H]12 [B]	8 µg/mL (≈ 11.5 µM)	8 µg/mL (≈ 11.5 µM)	0.25 µg/mL (≈ 0.359 µM)	1 µg/mL (≈ 1.44 µM)	16 µg/mL (≈ 23 µM)	0.125 µg/mL (≈ 0.18 µM)	0.03 µg/mL (≈ 0.0431 µM)	32 µg/mL (≈ 46 µM)	128 µg/mL (≈ 184 µM)
O=C(Cc1ccccc1)N[C@@H]1C(=O)N2C(C(=O)O)=C(CN3CCC[C@H]4CN(c5c(F)cc6c(=O)c(C(=O)O)cn(C7CC7)c6c5Cl)C[C@H]43)CS[C@H]12 [A, 7-[2-([6R,7R ]-2-Carboxy-8-oxo-7-phenylacetylamino-5-thia-1-aza-bicyclo[4.2.0]oct-2-en-3-ylmethyl)-[1S,6S]-2,8-diazabicyclo[4.3.0]non-8-yl]-8-chloro-1-cyclopropyl-6-fluoro-1,4-dihydro-4-oxo-3-quinolinecarboxylic acid]	0.25 µg/mL (≈ 0.34 µM)	0.25 µg/mL (≈ 0.34 µM)	0.03 µg/mL (≈ 0.0407 µM)	0.125 µg/mL (≈ 0.17 µM)	4 µg/mL (≈ 5.43 µM)	0.03 µg/mL (≈ 0.0407 µM)	0.004 µg/mL (≈ 0.00543 µM)	0.25 µg/mL (≈ 0.34 µM)	2 µg/mL (≈ 2.72 µM)
